# Literature values in patent publication US11000475B2, “Ophthalmic solution of difluprednate” (Sun Pharma Advanced Research Company Limited, priority 2015, dated 2021).
structure (smiles),measurement,value
CCCC(=O)O[C@]1(C(=O)COC(C)=O)CCC2[C@@H]3CC(F)C4=CC(=O)C=C[C@]4(C)C3(F)[C@@H](O)C[C@@]21C (stereo partly shown) [Difluprednate],solubility in aqueous vehicle,practically insoluble
